Assay results from patent publication US11957687B2 (REGENERON PHARMACEUTICALS, INC., priority 2019, dated 2024).
pIC50: −log10 of the molar value.

target: HSD17B13 (Homo sapiens (Human), UniProt Q7Z5P4); assay: HSD17B13 enzymatic inhibition assay (150 nM or 50 nM HSD17B13); format: biochemical; conditions: 50 nM HSD17B13; read-out: Inhibition of 50 nM of HSD17B13 IC50
Sequence (Q7Z5P4 other isoform, or with tags, fused parts or gaps): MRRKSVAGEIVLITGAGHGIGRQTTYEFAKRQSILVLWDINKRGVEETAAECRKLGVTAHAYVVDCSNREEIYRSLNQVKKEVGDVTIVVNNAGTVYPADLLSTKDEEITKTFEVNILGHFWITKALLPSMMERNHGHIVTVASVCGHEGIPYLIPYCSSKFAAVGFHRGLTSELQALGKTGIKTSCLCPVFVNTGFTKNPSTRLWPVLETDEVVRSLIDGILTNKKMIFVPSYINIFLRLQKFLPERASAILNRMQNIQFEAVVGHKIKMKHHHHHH

Row | pIC50 | Compound
1 | < 5.00 | NCc1cccc2c1CCCC2NC(=O)c1ccc(C(F)(F)F)[nH]c1=O (centres unmarked) [Compound 313, N-(5-(aminomethyl)-1,2,3,4-tetrahydronaphthalen-1-yl)-2-oxo-6-(trifluoromethyl)-1,2-dihydropyridine-3-carboxamide]
2 | 5.14 | O=C(NC1c2ccncc2Oc2ccc(O)cc21)c1ccc(C(F)(F)F)[nH]c1=O (centres unmarked) [Compound 318, N-(7-hydroxy-5H-chromeno[2,3-c]pyridin-5-yl)-2-oxo-6-(trifluoromethyl)-1,2-dihydropyridine-3-carboxamide]
3 | 6.08 | COc1ccc2c(c1)C(NC(=O)c1ccc(C(F)(F)F)[nH]c1=O)c1ccncc1O2 (centres unmarked) [Compound 319, N-(7-methoxy-5H-chromeno[2,3-c]pyridin-5-yl)-2-oxo-6-(trifluoromethyl)-1,2-dihydropyridine-3-carboxamide]
4 | 6.22 | O=C(NC1c2ccncc2Oc2cc(O)ccc21)c1ccc(C(F)(F)F)[nH]c1=O (centres unmarked) [Compound 320, N-(8-hydroxy-5H-chromeno[2,3-c]pyridin-5-yl)-2-oxo-6-(trifluoromethyl)-1,2-dihydropyridine-3-carboxamide]
5 | 6.52 | COc1ccc2c(c1)Oc1cccnc1C2NC(=O)c1ccc(C(F)(F)F)[nH]c1=O (centres unmarked) [Compound 322, N-(7-methoxy-10H-chromeno[3,2-b]pyridin-10-yl)-2-oxo-6-(trifluoromethyl)-1,2-dihydropyridine-3-carboxamide]
6 | 6.74 | Cc1cc2c(cn1)C(NC(=O)c1ccc(C(F)(F)F)[nH]c1=O)c1ccccc1O2 (centres unmarked) [Compound 325, N-(3-methyl-10H-chromeno[3,2-c]pyridin-10-yl)-2-oxo-6-(trifluoromethyl)-1,2-dihydropyridine-3-carboxamide]
7 | 7.22 | Cc1ccc2c(c1)Oc1cccnc1C2NC(=O)c1ccc(C(F)(F)F)[nH]c1=O (centres unmarked) [Compound 326, N-(7-methyl-10H-chromeno[3,2-b]pyridin-10-yl)-2-oxo-6-(trifluoromethyl)-1,2-dihydropyridine-3-carboxamide]
8 | 5.77 | Cc1cccc2c1C(NC(=O)c1ccc(C(F)(F)F)[nH]c1=O)c1cnccc1O2 (centres unmarked) [Compound 329, N-(9-methyl-10H-chromeno[3,2-c]pyridin-10-yl)-2-oxo-6-(trifluoromethyl)-1,2-dihydropyridine-3-carboxamide]
9 | 6.22 | O=C(NC1c2ccccc2Oc2cccnc21)c1ccc(C(F)(F)F)[nH]c1=O (centres unmarked) [Compound 331, N-(10H-chromeno[3,2-b]pyridin-10-yl)-2-oxo-6-(trifluoromethyl)-1,2-dihydropyridine-3-carboxamide]
10 | 5.89 | O=C(NC1c2ccccc2Oc2ccncc21)c1ccc(C(F)(F)F)[nH]c1=O (centres unmarked) [Compound 332, N-(10H-chromeno[3,2-c]pyridin-10-yl)-2-oxo-6-(trifluoromethyl)-1,2-dihydropyridine-3-carboxamide]
11 | 6.13 | O=C(NC1c2ccccc2Oc2cnccc21)c1ccc(C(F)(F)F)[nH]c1=O (centres unmarked) [Compound 333, N-(5H-chromeno[2,3-c]pyridin-5-yl)-2-oxo-6-(trifluoromethyl)-1,2-dihydropyridine-3-carboxamide]
12 | 5.62 | O=C(NC1c2ccccc2Oc2ncccc21)c1ccc(C(F)(F)F)[nH]c1=O (centres unmarked) [Compound 334, N-(5H-chromeno[2,3-b]pyridin-5-yl)-2-oxo-6-(trifluoromethyl)-1,2-dihydropyridine-3-carboxamide]
13 | 5.35 | O=C(NC1CCCc2c(CCc3ccccc3)cccc21)c1ccc(C(F)(F)F)[nH]c1=O (centres unmarked) [Compound 335, 2-oxo-N-(5-phenethyl-1,2,3,4-tetrahydronaphthalen-1-yl)-6-(trifluoromethyl)-1,2-dihydropyridine-3-carboxamide]
14 | 6.72 | CCCC1=Cc2ccc(C)cc2C1NC(=O)c1ccc(C(F)(F)F)[nH]c1=O (centres unmarked) [Compound 340, N-(6-methyl-2-propyl-1H-inden-1-yl)-2-oxo-6-(trifluoromethyl)-1,2-dihydropyridine-3-carboxamide]
15 | 5.20 | CC1=C(NC(=O)c2ccc(C(F)(F)F)[nH]c2=O)c2ccccc2C1=O [Compound 343, N-(2-methyl-1-oxo-1H-inden-3-yl)-2-oxo-6-(trifluoromethyl)-1,2-dihydropyridine-3-carboxamide]
16 | 5.05 | O=C(NC1CCCc2c(CO)cccc21)c1ccc(C(F)(F)F)[nH]c1=O (centres unmarked) [Compound 345, N-(5-(hydroxymethyl)-1,2,3,4-tetrahydronaphthalen-1-yl)-2-oxo-6-(trifluoromethyl)-1,2-dihydropyridine-3-carboxamide]
17 | 5.15 | O=C(NC1CCCc2c(CCO)cccc21)c1ccc(C(F)(F)F)[nH]c1=O (centres unmarked) [Compound 346, N-(5-(2-hydroxyethyl)-1,2,3,4-tetrahydronaphthalen-1-yl)-2-oxo-6-(trifluoromethyl)-1,2-dihydropyridine-3-carboxamide]
18 | < 5.00 | Cc1cccc2c1CCCC2NC(=O)c1ccc(C(F)(F)F)[nH]c1=O (centres unmarked) [Compound 347]
19 | 5.01 | O=C(NC1CCCc2c(-c3ccccc3)cccc21)c1ccc(C(F)(F)F)[nH]c1=O (centres unmarked) [Compound 348, 2-oxo-N-(5-phenyl-1,2,3,4-tetrahydronaphthalen-1-yl)-6-(trifluoromethyl)-1,2-dihydropyridine-3-carboxamide]

Further lines, the compound ahead of its results:

Row | Compound | pIC50
20 | Cc1ccc2c(c1)CC(C)C2NC(=O)c1ccc(C(F)(F)F)[nH]c1=O (centres unmarked) [Compound 296, N-(2,5-dimethyl-2,3-dihydro-1H-inden-1-yl)-2-oxo-6-(trifluoromethyl)-1,2-dihydropyridine-3-carboxamide] | 6.77
21 | CCC[C@@H]1C[C@H](NC(=O)c2ccc(C(F)(F)F)[nH]c2=O)C[C@H](CCC)O1 [Compound 303, N-((2R,4R,6S)-2,6-dipropyltetrahydro-2H-pyran-4-yl)-2-oxo-6-(trifluoromethyl)-1,2-dihydropyridine-3-carboxamide] | 5.51
22 | Cc1ccc2c(c1)[C@H](N)CC[C@H]2NC(=O)c1ccc(C(F)(F)F)[nH]c1=O [Compound 304, N-((1R,4R)-4-amino-6-methyl-1,2,3,4-tetrahydronaphthalen-1-yl)-2-oxo-6-(trifluoromethyl)-1,2-dihydropyridine-3-carboxamide] | < 5.00
23 | Cc1ccc2c(c1)[C@@H](N)CC[C@H]2NC(=O)c1ccc(C(F)(F)F)[nH]c1=O [Compound 305, N-((1R,4S)-4-amino-6-methyl-1,2,3,4-tetrahydronaphthalen-1-yl)-2-oxo-6-(trifluoromethyl)-1,2-dihydropyridine-3-carboxamide] | 5.11
24 | Cc1ccc2sc(C)c(NC(=O)c3ccc(C(F)(F)F)[nH]c3=O)c2c1 [Compound 310, N-(2,5-dimethylbenzo[b]thiophen-3-yl)-2-oxo-6-(trifluoromethyl)-1,2-dihydropyridine-3-carboxamide] | 6.17
25 | CC(C)(C)OC(=O)NCCN1Cc2ccccc2C(NC(=O)c2ccc(C(F)(F)F)[nH]c2=O)C1 (centres unmarked) [Compound 314, tert-butyl (2-(4-(2-oxo-6-(trifluoromethyl)-1,2-dihydropyridine-3-carboxamido)-3,4-dihydroisoquinolin-2(1H)-yl)ethyl)carbamate] | 5.26
26 | O=C(NC1CN(CCOCc2ccccc2)Cc2ccccc21)c1ccc(C(F)(F)F)[nH]c1=O (centres unmarked) [Compound 315, N-(2-(2-(benzyloxy)ethyl)-1,2,3,4-tetrahydroisoquinolin-4-yl)-2-oxo-6-(trifluoromethyl)-1,2-dihydropyridine-3-carboxamide] | 6.02
27 | Cc1ccc2c(c1)N(CCOCc1ccccc1)CCC2NC(=O)c1ccc(C(F)(F)F)[nH]c1=O (centres unmarked) [Compound 316, N-(1-(2-(benzyloxy)ethyl)-7-methyl-1,2,3,4-tetrahydroquinolin-4-yl)-2-oxo-6-(trifluoromethyl)-1,2-dihydropyridine-3-carboxamide] | 5.22
28 | CC(C)(C)OC(=O)N1Cc2ccccc2C(NC(=O)c2ccc(C(F)(F)F)[nH]c2=O)C1 (centres unmarked) [Compound 317, tert-butyl 4-(2-oxo-6-(trifluoromethyl)-1,2-dihydropyridine-3-carboxamido)-3,4-dihydroisoquinoline-2(1H)-carboxylate] | 5.39
29 | CCN1CCC(NC(=O)c2ccc(C(F)(F)F)[nH]c2=O)c2ccc(C)cc21 (centres unmarked) [Compound 336, N-(1-ethyl-7-methyl-1,2,3,4-tetrahydroquinolin-4-yl)-2-oxo-6-(trifluoromethyl)-1,2-dihydropyridine-3-carboxamide] | 5.24
30 | CCCN1CCC(NC(=O)c2ccc(C(F)(F)F)[nH]c2=O)c2ccc(C)cc21 (centres unmarked) [Compound 337, N-(7-methyl-1-propyl-1,2,3,4-tetrahydroquinolin-4-yl)-2-oxo-6-(trifluoromethyl)-1,2-dihydropyridine-3-carboxamide] | 5.38
31 | Cc1ccc2c(c1)N(C)CCC2NC(=O)c1ccc(C(F)(F)F)[nH]c1=O (centres unmarked) [Compound 338, N-(1,7-dimethyl-1,2,3,4-tetrahydroquinolin-4-yl)-2-oxo-6-(trifluoromethyl)-1,2-dihydropyridine-3-carboxamide] | 5.37
32 | Cc1ccc2c(c1)C(NC(=O)c1ccc(C(F)(F)F)[nH]c1=O)CCN2 (centres unmarked) [Compound 339, N-(6-methyl-1,2,3,4-tetrahydroquinolin-4-yl)-2-oxo-6-(trifluoromethyl)-1,2-dihydropyridine-3-carboxamide] | 5.55
33 | CCCC1=C(NC(=O)c2ccc(C(F)(F)F)[nH]c2=O)c2ccc(C)cc2C1O (centres unmarked) [Compound 342, N-(1-hydroxy-6-methyl-2-propyl-1H-inden-3-yl)-2-oxo-6-(trifluoromethyl)-1,2-dihydropyridine-3-carboxamide] | 7.00
34 | CCCC1=C(NC(=O)c2ccc(C(F)(F)F)[nH]c2=O)c2ccc(C)cc2C1=O [Compound 344, N-(6-methyl-1-oxo-2-propyl-1H-inden-3-yl)-2-oxo-6-(trifluoromethyl)-1,2-dihydropyridine-3-carboxamide] | 5.65
35 | COc1ccc2c(c1)CCC(OC)C2NC(=O)c1ccc(C(F)(F)F)[nH]c1=O (centres unmarked) [Compound 349, N-(2,6-dimethoxy-1,2,3,4-tetrahydronaphthalen-1-yl)-2-oxo-6-(trifluoromethyl)-1,2-dihydropyridine-3-carboxamide] | 5.85
